Our source for the MIC values is DBAASP.

Some test systems named below: Bacillus megaterium; Klebsiella pneumoniae; Shigella dysenteriae; Escherichia coli AB94012.
Common to all, as to test: ≥ marks a high value that may be exact or a test limit, other limits are often not marked, values filed in µg/mL are converted to µM
Experiment [1] has as its system Acinetobacter johnsonii NCDC 0072.
For experiment [2], the system named is Bacillus cereus NCDC 0240.
In experiment [3] the test system is Escherichia coli MTCC 0723.
Experiment [4] concerns Listeria monocytogenes ATCC 19111.
The test system of experiment [5] is Pseudomonas aeruginosa ATCC 27853.
Experiment [6] has as its system Pseudomonas aeruginosa NCDC 0105.
In experiment [7] the test system is Salmonella enterica subsp. enterica serovar Typhimurium ATCC 14028.
Experiment [8] has as its system Staphylococcus aureus ATCC 29213.
For experiment [9], the system named is Staphylococcus aureus NCDC 0111.
The subject of experiment [10] is Bacillus subtilis ATCC 6633.
The subject of experiment [11] is Klebsiella pneumoniae ATCC 27736.
Experiment [12] concerns Pseudomonas aeruginosa ATCC BAA-427.
The subject of experiment [13] is Enterococcus faecium ATCC 700221.
Experiment [14] relates to Escherichia coli ATCC 25922.
The subject of experiment [15] is Staphylococcus aureus ATCC 33591.
The subject of experiment [16] is Bacillus subtilis KCTC 1918.
In experiment [17] the test system is Candida albicans TIMM 1768.
For experiment [18], the system named is Pseudomonas aeruginosa KCTC 1637.
In experiment [19] the test system is Salmonella typhimurium KCTC 1926.
In experiment [20] the test system is Staphylococcus epidermidis KCTC 3096.
The subject of experiment [21] is Trichosporon beigelii KCTC 7707.
Experiment [22] deals with Aspergillus flavus IFFI 4015.
Experiment [23] has as its system Candida albicans ATCC 2002.
Experiment [24] has as its system Penicillium urticae IFFI 2001.
The subject of experiment [25] is Pseudomonas aeruginosa CMCCB 10104.
The subject of experiment [26] is Staphylococcus aureus ATCC 2592.
Experiment [27] deals with Pseudomonas aeruginosa AB93066.
Experiment [28] has as its system Pseudomonas aeruginosa ATCC 9027.
The test system of experiment [29] is Staphylococcus aureus AB94004.
The test system of experiment [30] is Staphylococcus aureus ATCC 25923.
The test system of experiment [31] is Staphylococcus aureus ATCC 6538.
Experiment [32] concerns Staphylococcus aureus P1374.
For experiment [33], the system named is Staphylococcus aureus P1381.

Converted amounts (≈) assume the structure as drawn.

`CC[C@H](C)[C@H](NC(=O)[C@H](Cc1c[nH]c2ccccc12)NC(=O)[C@@H](NC(=O)[C@H](Cc1c[nH]c2ccccc12)NC(=O)[C@@H]1CCCN1C(=O)[C@@H](NC(=O)[C@H](C)N)[C@@H](C)CC)[C@@H](C)CC)C(=O)N[C@@H](Cc1c[nH]c2ccccc12)C(=O)N[C@@H](Cc1c[nH]c2ccccc12)C(=O)N[C@@H](CC(C)C)C(=O)N[C@@H](CC(C)C)C(=O)N[C@@H](CCCN=C(N)N)C(=O)N[C@@H](CCCCN)C(=O)NCC(=O)O` [AIPWIWIWWLLRKG]: the MIC in [1] was determined as 1.5 µM (≈ 2.76 µg/mL); in [2], 0.8 µM (≈ 1.47 µg/mL); in experiment [3], 6 µM (≈ 11 µg/mL); in experiment [4] it was 6 µM (≈ 11 µg/mL); in experiment [5], 6 µM (≈ 11 µg/mL); in experiment [6] it was 6 µM (≈ 11 µg/mL). Moreover, the MIC in [7] is 1.5 µM (≈ 2.76 µg/mL); in [8] it was 6 µM (≈ 11 µg/mL); in [9], 0.4 µM (≈ 0.735 µg/mL).

Regarding `CC[C@H](C)[C@H](NC(=O)CNC(=O)[C@H](CCCN=C(N)N)NC(=O)[C@H](Cc1ccccc1)NC(=O)[C@@H](NC(=O)[C@H](Cc1cnc[nH]1)NC(=O)[C@H](Cc1cnc[nH]1)NC(=O)[C@H](Cc1ccccc1)NC(=O)[C@@H](N)Cc1ccccc1)[C@@H](C)CC)C(=O)N[C@H](C(=O)N[C@@H](Cc1cnc[nH]1)C(=O)N[C@H](C(=O)NCC(=O)N[C@@H](CCCCN)C(=O)N[C@H](C(=O)N[C@H](C(=O)N[C@@H](Cc1cnc[nH]1)C(=O)N[C@@H](CCCN=C(N)N)C(=O)N[C@@H](CC(C)C)C(=O)N[C@H](C(=O)N[C@H](C(=O)NCC(N)=O)[C@@H](C)O)C(C)C)C(C)C)[C@@H](C)O)C(C)C)C(C)C` [FFHHIFRGIVHVGKTVHRLVTG], the MIC in experiment [10] came to 8 µM (≈ 20.5 µg/mL); in [11], 6 µM (≈ 15.3 µg/mL); in experiment [12] it was 12 µM (≈ 30.7 µg/mL).

Turning to `CC[C@H](C)[C@H](NC(=O)[C@H](CCCCN)NC(=O)[C@H](CCCCN)NC(=O)[C@H](CC(C)C)NC(=O)[C@H](CC(C)C)NC(=O)[C@H](CCCCN)NC(=O)[C@H](CCCCN)NC(=O)[C@@H](NC(=O)[C@@H](NC(=O)[C@H](CC(=O)O)NC(=O)[C@H](Cc1ccccc1)NC(=O)[C@H](CC(C)C)NC(=O)CN)C(C)C)[C@@H](C)CC)C(=O)NCC(=O)NCC(=O)N[C@@H](CC(C)C)C(N)=O` [GLFDVIKKLLKKIGGL], the MIC in experiment [13] was 1.6 µM (≈ 2.79 µg/mL); in [14], 6.3 µM (≈ 11 µg/mL); in experiment [5], 12.5 µM (≈ 21.8 µg/mL); in experiment [15], 3.1 µM (≈ 5.4 µg/mL).

In the case of `CC(C)C[C@H](NC(=O)[C@H](Cc1ccccc1)NC(=O)[C@H](CCCCN)NC(=O)[C@@H]1CCCN1C(=O)[C@H](CCCCN)NC(=O)[C@H](CCCCN)NC(=O)[C@H](CCCCN)NC(=O)[C@H](CCCCN)NC(=O)[C@H](CCCCN)NC(=O)[C@H](CCCCN)NC(=O)[C@H](Cc1c[nH]c2ccccc12)NC(=O)[C@@H](N)CCCCN)C(N)=O` [KWKKKKKKPKFL], the MIC in experiment [16] turned out to be 6.25 µM (≈ 9.91 µg/mL); in [17], 25 µM (≈ 39.7 µg/mL); in [18], 3.12 µM (≈ 4.95 µg/mL); in experiment [19] it was 2.21 µM (≈ 3.5 µg/mL); in experiment [20], 12.5 µM (≈ 19.8 µg/mL); in experiment [21], 25 µM (≈ 39.7 µg/mL).

Take `CC[C@H](C)[C@H](NC(=O)[C@H](CCCCN)NC(=O)[C@H](C)NC(=O)CNC(=O)[C@@H](NC(=O)[C@@H](N)CO)[C@@H](C)CC)C(=O)N[C@@H](CC(C)C)C(=O)NCC(=O)NCC(=O)N[C@H](C(=O)N[C@@H](CCCCN)C(=O)N[C@H](C(=O)N[C@@H](Cc1ccccc1)C(=O)N[C@@H](Cc1ccccc1)C(=O)N[C@@H](CCCCN)C(=O)NCC(=O)N[C@@H](C)C(=O)N[C@@H](CC(C)C)C(=O)N[C@@H](CCCCN)C(=O)N[C@@H](CCC(=O)O)C(=O)N[C@@H](CC(C)C)C(=O)N[C@@H](C)C(=O)N[C@@H](CO)C(=O)N[C@H](C(=O)N[C@@H](Cc1ccc(O)cc1)C(=O)N[C@@H](CC(C)C)C(=O)N[C@@H](CCC(N)=O)C(=O)O)[C@@H](C)O)[C@@H](C)O)C(C)C` [SIGAKILGGVKTFFKGALKELASTYLQ]: the MIC in experiment [22] stood at 4.22 µM (≈ 12 µg/mL); in the experiment with Bacillus megaterium, 4.22 µM (≈ 12 µg/mL); in experiment [23], 0.422 µM (≈ 1.2 µg/mL); in the experiment on Klebsiella pneumoniae it was 1.27 µM (≈ 3.6 µg/mL); in experiment [24], 4.22 µM (≈ 12 µg/mL); in experiment [25], 2.53 µM (≈ 7.2 µg/mL). Besides, the values for the MIC (with Shigella dysenteriae; in [26]) were 4.22 µM (≈ 12 µg/mL) and 1.27 µM (≈ 3.6 µg/mL), respectively.

Consider `CC[C@H](C)[C@H](NC(=O)[C@H](CO)NC(=O)[C@H](CCCCN)NC(=O)[C@@H](NC(=O)CNC(=O)[C@H](CCCCN)NC(=O)[C@H](Cc1c[nH]c2ccccc12)NC(=O)[C@H](CC(C)C)NC(=O)[C@H](CCCCN)NC(=O)CNC(=O)[C@H](CC(C)C)NC(=O)[C@@H](NC(=O)[C@@H](N)CO)[C@@H](C)CC)C(C)C)C(=O)N[C@@H](Cc1ccccc1)C(N)=O` [SILGKLWKGVKSIF], for which the MIC against Escherichia coli AB94012 was found to be 15.9 µM (≈ 25 µg/mL); in experiment [14], 31.7 µM (≈ 50 µg/mL); in experiment [27], 31.7 µM (≈ 50 µg/mL); in experiment [28], 15.9 µM (≈ 25 µg/mL); in experiment [29], 3.97 µM (≈ 6.25 µg/mL); in experiment [30] it was 3.97 µM (≈ 6.25 µg/mL). Further, the MIC came out at 3.97 µM (≈ 6.25 µg/mL) in experiment [31], 3.97 µM (≈ 6.25 µg/mL) in experiment [32] and 7.93 µM (≈ 12.5 µg/mL) in experiment [33].
